Here are results for 15 compounds from patent publication US20240391959A1, “BICYCLIC PEPTIDE LIGANDS […] FOR TRANSFERRIN RECEPTOR 1 (TfR1)” (BicycleTx Limited, priority 2020, published 2024).

Holding throughout (format): binding
The target in test [1] is T1, human TfR1 (Homo sapiens, UniProt P02786). Nature of the test: biochemical. The arrangement: His6-tagged TfR1 (a.a. 89-760) (ACRO Biosystems, CD1-H5243 and TFR-C524a); His6; purchased R&D Systems or Acro Biosystems 2474-TR or CD1-H5243. The conditions noted are these: Human TfR1 Kd (nM).
Test [2] addresses T1, human TfR1. The test can be described thus: biochemical. The arrangement: His6-tagged TfR1 (a.a. 89-760) (ACRO Biosystems, CD1-H5243 and TFR-C524a); His6; purchased R&D Systems or Acro Biosystems 2474-TR or CD1-H5243.
The target of a further test is cynomolgus TfR1.

Several values for one entry are separate records, joined by “and”; a condition that tells them apart may be missing. Equal values may be shown once.

T1 sequence (P02786 89-760): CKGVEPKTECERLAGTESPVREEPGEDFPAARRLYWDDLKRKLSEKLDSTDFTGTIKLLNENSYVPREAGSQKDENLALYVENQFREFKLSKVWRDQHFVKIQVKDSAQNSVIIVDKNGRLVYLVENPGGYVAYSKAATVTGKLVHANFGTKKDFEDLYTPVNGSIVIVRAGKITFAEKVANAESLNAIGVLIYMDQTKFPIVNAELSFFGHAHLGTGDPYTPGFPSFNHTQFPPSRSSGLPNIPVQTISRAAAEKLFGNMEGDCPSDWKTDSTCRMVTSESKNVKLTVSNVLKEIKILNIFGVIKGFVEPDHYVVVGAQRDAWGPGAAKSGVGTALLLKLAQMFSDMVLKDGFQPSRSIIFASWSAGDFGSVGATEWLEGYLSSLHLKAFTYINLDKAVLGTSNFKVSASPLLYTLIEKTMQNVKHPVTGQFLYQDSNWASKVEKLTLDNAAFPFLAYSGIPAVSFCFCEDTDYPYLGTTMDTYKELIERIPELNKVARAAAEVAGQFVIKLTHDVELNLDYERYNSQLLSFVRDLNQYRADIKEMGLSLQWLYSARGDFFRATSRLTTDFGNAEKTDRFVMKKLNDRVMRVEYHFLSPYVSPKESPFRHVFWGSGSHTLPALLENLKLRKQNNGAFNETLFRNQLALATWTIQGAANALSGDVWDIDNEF

What is called Kd is the equilibrium constant for the complex coming apart. A word on the Ki: it is the dissociation constant of the complex between target and ligand, obtained from inhibition or displacement. Low values mean tighter binding, high ones weaker binding. The compound `CC[C@H](C)[C@@H]1NC(=O)[C@@H]2CSCC(=O)N3CN(CN(C3)C(=O)CSC[C@H](NC(C)=O)C(=O)N[C@@H](CO)C(=O)N3CC[C@H]3C(=O)N[C@@H](CC(=O)O)C(=O)N[C@@H](C)C(=O)N[C@@H](Cc3c[nH]cn3)C(=O)N[C@@H](CC(C)C)C(=O)NCC(=O)N2)C(=O)CSC[C@@H](C(N)=O)NC(=O)[C@H](Cc2ccc(O)cc2)NC(=O)[C@H](CO)NC1=O` [BCY17988, Ac-(SEQ ID NO: 44)] had a Kd at human TfR1 [1] of 649 nM. In addition, the Ki on human TfR1 [2] (Geomean Ki (μM)) is 0.272 µM; at human TfR1 [2] (Human TfR1 Ki (nM)), 0.213 µM.

On cynomolgus TfR1, `CC[C@H](C)[C@@H]1NC(=O)[C@@H]2CSCC(=O)N3CN(CN(C3)C(=O)CSC[C@H](NC(=O)[C@H](CC(N)=O)NC(=O)[C@@H](Cc3c[nH]c4ccccc34)NC(=O)[C@H](CC(N)=O)NC(C)=O)C(=O)N[C@@H](CO)C(=O)N3CCC[C@H]3C(=O)N[C@@H](CC(=O)O)C(=O)N[C@@H](C)C(=O)N[C@@H](Cc3c[nH]cn3)C(=O)N[C@@H](CC(C)C)C(=O)NCC(=O)N2)C(=O)CSC[C@@H](C(N)=O)NC(=O)[C@H](Cc2ccc(O)cc2)NC(=O)[C@H](CO)NC1=O` [BCY18035, Ac-N[dW]N-(SEQ ID NO: 9)] gave a Kd of 10300 nM. For the same compound, the Ki on human TfR1 [2] (Geomean Ki (μM)) was 0.02 µM.

`CC[C@H](C)[C@@H]1NC(=O)[C@@H]2CSCC(=O)N3CN(CN(C3)C(=O)CSC[C@@H](C(=O)N[C@@H](CCC(=O)O)C(=O)N3CCC[C@H]3C(=O)N[C@@H](Cc3c[nH]c4ccccc34)C(N)=O)NC(=O)[C@H](Cc3ccc(O)cc3)NC(=O)[C@H](CO)NC1=O)C(=O)CSC[C@H](NC(C)=O)C(=O)N[C@@H](CO)C(=O)N1CCC[C@H]1C(=O)N[C@@H](CC(=O)O)C(=O)N[C@@H](C)C(=O)N[C@@H](Cc1c[nH]cn1)C(=O)N[C@@H](CC(C)C)C(=O)NCC(=O)N2` [BCY17994, Ac-(SEQ ID NO: 9)-EPW] gave a Kd on cynomolgus TfR1 of 688 nM. The Ki on human TfR1 [2] (Geomean Ki (μM)) and at human TfR1 [2] (Human TfR1 Ki (nM)) was 0.008 µM throughout.

Take `CC[C@H](C)[C@@H]1NC(=O)[C@@H]2CSCC(=O)N3CN(CN(C3)C(=O)CSC[C@H](NC(=O)[C@H](CC(N)=O)NC(=O)[C@H](Cc3c[nH]c4ccccc34)NC(=O)[C@@H](N)CC(N)=O)C(=O)N[C@@H](CO)C(=O)N3CCC[C@H]3C(=O)N[C@@H](CC(=O)O)C(=O)N[C@@H](C)C(=O)N[C@@H](Cc3c[nH]cn3)C(=O)N[C@@H](CC(C)C)C(=O)NCC(=O)N2)C(=O)CSC[C@@H](C(=O)N[C@@H](C)C(N)=O)NC(=O)[C@H](Cc2ccc(O)cc2)NC(=O)[C@H](CO)NC1=O` [BCY17109, NWN-(SEQ ID NO: 9)-A]: the Kd at cynomolgus TfR1 was 281 nM and 535 nM. The Ki at human TfR1 [2] (Geomean Ki (μM)) was 0.009 µM.

Regarding `CC[C@H](C)[C@@H]1NC(=O)[C@@H]2CSCC(=O)N3CN(CN(C3)C(=O)CSC[C@@H](C(=O)N[C@@H](C)C(N)=O)NC(=O)[C@H](Cc3cccc4ccccc34)NC(=O)[C@H](CO)NC1=O)C(=O)CSC[C@H](NC(=O)[C@H](C)N)C(=O)N[C@@H](CO)C(=O)N1CCC[C@H]1C(=O)N[C@@H](CC(=O)O)C(=O)N[C@@H](C)C(=O)N[C@@H](Cc1c[nH]cn1)C(=O)N[C@@H](CC(C)C)C(=O)NCC(=O)N2` [BCY16029, A-(SEQ ID NO: 39)-A], binding at cynomolgus TfR1 was characterised by a dissociation constant (Kd) of 5480 nM.

As for `CC[C@H](C)[C@@H]1NC(=O)[C@@H]2CSCC(=O)N3CN(CN(C3)C(=O)CSC[C@@H](C(=O)N[C@@H](C)C(N)=O)NC(=O)[C@H](Cc3ccc(O)c(C(C)(C)C)c3)NC(=O)[C@H](CO)NC1=O)C(=O)CSC[C@H](NC(=O)[C@H](C)N)C(=O)N[C@@H](CO)C(=O)N1CCC[C@H]1C(=O)N[C@@H](CC(=O)O)C(=O)N[C@@H](C)C(=O)N[C@@H](Cc1c[nH]cn1)C(=O)N[C@@H](CC(C)C)C(=O)NCC(=O)N2` [BCY16079, A-(SEQ ID NO: 37)-A], the equilibrium dissociation constant (Kd) on cynomolgus TfR1 was 5660 nM; on human TfR1 [1], 60 nM.

Turning to `CC[C@H](C)[C@@H]1NC(=O)[C@@H]2CSCC(=O)N3CN(CN(C3)C(=O)CSC[C@@H](C(=O)N[C@@H](CCC(=O)O)C(=O)N3CCC[C@H]3C(=O)N[C@@H](Cc3c[nH]c4ccccc34)C(N)=O)NC(=O)[C@H](Cc3ccc(O)cc3)NC(=O)[C@H](CO)NC1=O)C(=O)CSC[C@H](NC(=O)[C@H](C)N)C(=O)N[C@@H](CO)C(=O)N1CCC[C@H]1C(=O)N[C@@H](CC(=O)O)C(=O)N[C@@H](C)C(=O)N[C@@H](Cc1c[nH]cn1)C(=O)N[C@@H](CC(C)C)C(=O)NCC(=O)N2` [BCY17114, A-(SEQ ID NO: 9)-EPW], binding at cynomolgus TfR1 was characterised by a dissociation constant (Kd) of 845 nM.

On to `CC[C@H](C)[C@@H]1NC(=O)[C@@H]2CSCC(=O)N3CN(CN(C3)C(=O)CSC[C@@H](C(=O)N[C@@H](CCC(=O)O)C(=O)N3CC[C@H]3C(=O)N[C@@H](Cc3c[nH]c4ccccc34)C(N)=O)NC(=O)[C@H](Cc3ccc(O)cc3)NC(=O)[C@H](CO)NC1=O)C(=O)CSC[C@H](NC(C)=O)C(=O)N[C@@H](CO)C(=O)N1CCC[C@H]1C(=O)N[C@@H](CC(=O)O)C(=O)N[C@@H](C)C(=O)N[C@@H](Cc1c[nH]cn1)C(=O)N[C@@H](CC(C)C)C(=O)NCC(=O)N2` [BCY18037, Ac-(SEQ ID NO: 9)-E[Aze]W], for which, on cynomolgus TfR1, the Kd turned out to be 1080 nM.

Compound `CC[C@H](C)[C@@H]1NC(=O)[C@@H]2CSCC(=O)N3CN(CN(C3)C(=O)CSC[C@@H](C(=O)N[C@@H](CCC(=O)O)C(=O)N3CCC[C@@H]3C(=O)N[C@@H](Cc3c[nH]c4ccccc34)C(N)=O)NC(=O)[C@H](Cc3ccc(O)cc3)NC(=O)[C@H](CO)NC1=O)C(=O)CSC[C@H](NC(C)=O)C(=O)N[C@@H](CO)C(=O)N1CCC[C@H]1C(=O)N[C@@H](CC(=O)O)C(=O)N[C@@H](C)C(=O)N[C@@H](Cc1c[nH]cn1)C(=O)N[C@@H](CC(C)C)C(=O)NCC(=O)N2` [BCY18038, Ac-(SEQ ID NO: 9)-E[dP]W] had a Kd on cynomolgus TfR1 of 1650 nM.

As to `CC(C)C[C@@H]1NC(=O)[C@H](Cc2ccc(O)cc2)NC(=O)[C@H](C)NC(=O)[C@H](CC(=O)O)NC(=O)[C@@H]2CCCN2C(=O)[C@@H]2CCCN2C(=O)[C@@H](NC(=O)[C@H](C)N)CSCC(=O)N2CN3CN(C2)C(=O)CSC[C@@H](C(=O)N[C@@H](C)C(N)=O)NC(=O)[C@H](Cc2ccc(O)cc2)NC(=O)[C@H](CO)NC(=O)[C@H](C(C)(C)C)NC(=O)[C@H](CSCC3=O)NC(=O)CNC1=O` [BCY16964, A-(SEQ ID NO: 22)-A], the dissociation constant Kd on cynomolgus TfR1 was found to be 514 nM.

Regarding `CC[C@H](C)[C@@H]1NC(=O)[C@@H]2CSCC(=O)N3CN(CN(C3)C(=O)CSC[C@H](NC(=O)[C@@H](NC(=O)[C@H](CCC(=O)O)NC(=O)[C@@H](N)CC(N)=O)C(C)C)C(=O)N[C@@H](CO)C(=O)N3CCC[C@H]3C(=O)N[C@@H](CC(=O)O)C(=O)N[C@@H](C)C(=O)N[C@@H](Cc3c[nH]cn3)C(=O)N[C@@H](CC(C)C)C(=O)NCC(=O)N2)C(=O)CSC[C@@H](C(=O)N[C@@H](C)C(N)=O)NC(=O)[C@H](Cc2ccc(O)cc2)NC(=O)[C@H](CO)NC1=O` [BCY17112, NEV-(SEQ ID NO: 9)-A], binding on cynomolgus TfR1 was put at a Kd of 2600 nM.

On cynomolgus TfR1, `CC[C@H](C)[C@@H]1NC(=O)[C@@H]2CSCC(=O)N3CN(CN(C3)C(=O)CSC[C@H](NC(=O)[C@H](CC(N)=O)NC(=O)[C@H](Cc3c[nH]c4ccccc34)NC(=O)[C@H](CC(N)=O)NC(C)=O)C(=O)N[C@@H](CO)C(=O)N3CCC[C@H]3C(=O)N[C@@H](CC(=O)O)C(=O)N[C@@H](C)C(=O)N[C@@H](Cc3c[nH]cn3)C(=O)N[C@@H](CC(C)C)C(=O)NCC(=O)N2)C(=O)CSC[C@@H](C(N)=O)NC(=O)[C@H](Cc2ccc(O)cc2)NC(=O)[C@H](CO)NC1=O` [BCY17992, Ac-NWN-(SEQ ID NO: 9)] came in with a Kd of 535 nM.

On to `CC[C@H](C)[C@@H]1NC(=O)[C@@H]2CSCC(=O)N3CN(CN(C3)C(=O)CSC[C@H](NC(=O)[C@H](CC(N)=O)NC(=O)[C@H](Cc3cccc4ccccc34)NC(=O)[C@H](CC(N)=O)NC(C)=O)C(=O)N[C@@H](CO)C(=O)N3CCC[C@H]3C(=O)N[C@@H](CC(=O)O)C(=O)N[C@@H](C)C(=O)N[C@@H](Cc3c[nH]cn3)C(=O)N[C@@H](CC(C)C)C(=O)NCC(=O)N2)C(=O)CSC[C@@H](C(N)=O)NC(=O)[C@H](Cc2ccc(O)cc2)NC(=O)[C@H](CO)NC1=O` [BCY18034, Ac-N[1Nal]N-(SEQ ID NO: 9)], for which the Kd at cynomolgus TfR1 amounted to 2080 nM. Also, affinity at human TfR1 [2] (Human TfR1 Ki (nM)) was put at a Ki of 0.01 µM.

Consider `CC[C@H](C)[C@@H]1NC(=O)[C@@H]2CSCC(=O)N3CN(CN(C3)C(=O)CSC[C@@H](C(=O)N3CCC[C@H]3C(=O)N[C@H](C(=O)N[C@H](C(=O)N[C@@H](Cc3c[nH]cn3)C(N)=O)C(C)C)[C@@H](C)CC)NC(=O)[C@H](Cc3ccc(O)cc3)NC(=O)[C@H](CO)NC1=O)C(=O)CSC[C@H](NC(=O)[C@H](C)N)C(=O)N[C@@H](CO)C(=O)N1CCC[C@H]1C(=O)N[C@@H](CC(=O)O)C(=O)N[C@@H](C)C(=O)N[C@@H](Cc1c[nH]cn1)C(=O)N[C@@H](CC(C)C)C(=O)NCC(=O)N2` [BCY17120, A-(SEQ ID NO: 9)-PIVH], for which the affinity on cynomolgus TfR1, expressed as Kd, was 1260 nM.

For the compound `CC[C@H](C)[C@@H]1NC(=O)[C@@H]2CSCC(=O)N3CN(CN(C3)C(=O)CSC[C@H](NC(C)=O)C(=O)N[C@@H](C)C(=O)N3CCC[C@H]3C(=O)N[C@@H](CC(=O)O)C(=O)N[C@@H](C)C(=O)N[C@@H](Cc3c[nH]cn3)C(=O)N[C@@H](CC(C)C)C(=O)NCC(=O)N2)C(=O)CSC[C@@H](C(N)=O)NC(=O)[C@H](Cc2ccc(O)cc2)NC(=O)[C@H](CO)NC1=O` [BCY17986, Ac-(SEQ ID NO: 24)], the Kd at cynomolgus TfR1 is 4660 nM.
